Results published in ChEMBL document CHEMBL4706583, “2-Anilinoquinoline based arylamides as broad spectrum anticancer agents with B-RAF/C-RAF kinase inhibitory effects: Design, synthesis, in vitro cell-based and oncogenic kinase assessments” (Eur J Med Chem, 2020).

Assays:
[1] = test system: SNB-19; assay: Growth inhibition of human SNB-19 cells measured after 48 hrs by SRB assay; type: functional
[2] = test system: CCRF-CEM; assay: Growth inhibition of human CCRF-CEM cells measured after 48 hrs by SRB assay; type: functional
[3] = test system: HCT-116; assay: Cell cycle arrest in human HCT-116 cells assessed as accumulation at G1/G0 phase at 2.5 uM measured after 48 hrs by propidium iodide staining based flow cytometry (reference value: 52.2%); type: functional
[4] = test system: UACC-62; assay: Growth inhibition of human UACC-62 cells measured after 48 hrs by SRB assay; type: functional
[5] = Cytotoxicity against human L132 cells assessed as cell viability at 3 uM measured after 48 hrs by EZ-Cytox assay relative to control; type: cell-based; conditions: read-out: Activity
[6] = target: Serine/threonine-protein kinase B-raf (Homo sapiens, UniProt P15056); assay: Inhibition of human BRAF at 10 uM using MEK1 (K97R) as substrate in presence of [gamma-33P]ATP by scintillation counting method relative to control
Chain of Serine/threonine-protein kinase B-raf (P15056 whole entry): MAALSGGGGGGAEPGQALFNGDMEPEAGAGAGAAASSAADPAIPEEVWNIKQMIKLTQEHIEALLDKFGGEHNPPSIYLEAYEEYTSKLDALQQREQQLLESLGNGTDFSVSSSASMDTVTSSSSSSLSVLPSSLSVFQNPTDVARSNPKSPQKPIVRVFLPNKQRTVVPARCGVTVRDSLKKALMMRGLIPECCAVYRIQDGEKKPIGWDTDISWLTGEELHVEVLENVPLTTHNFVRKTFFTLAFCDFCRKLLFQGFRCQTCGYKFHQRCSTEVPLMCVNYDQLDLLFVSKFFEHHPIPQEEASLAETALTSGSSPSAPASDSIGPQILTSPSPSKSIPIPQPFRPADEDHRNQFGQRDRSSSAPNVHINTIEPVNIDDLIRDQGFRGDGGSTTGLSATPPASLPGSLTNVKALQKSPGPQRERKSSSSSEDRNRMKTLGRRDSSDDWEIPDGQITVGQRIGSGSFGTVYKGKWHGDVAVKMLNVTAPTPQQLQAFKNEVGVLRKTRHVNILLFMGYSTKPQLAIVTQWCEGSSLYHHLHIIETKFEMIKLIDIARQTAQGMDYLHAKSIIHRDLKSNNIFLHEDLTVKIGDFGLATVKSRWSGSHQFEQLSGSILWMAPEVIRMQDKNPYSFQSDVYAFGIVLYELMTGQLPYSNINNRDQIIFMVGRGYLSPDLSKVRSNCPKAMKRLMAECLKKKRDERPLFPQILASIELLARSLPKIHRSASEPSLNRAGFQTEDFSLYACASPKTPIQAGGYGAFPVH

[7] = test system: HCT-116; assay: Cell cycle arrest in human HCT-116 cells assessed as accumulation at G1/G0 phase at 1.25 uM measured after 48 hrs by propidium iodide staining based flow cytometry (reference value: 52.2%); type: functional
[8] = test system: HCT-116; assay: Cell cycle arrest in human HCT-116 cells assessed as accumulation at G2/M phase at 1.25 uM measured after 48 hrs by propidium iodide staining based flow cytometry (reference value: 20.4%); type: functional
[9] = test system: MOLT-4; assay: Growth inhibition of human MOLT-4 cells measured after 48 hrs by SRB assay; type: functional
[10] = target: Discoidin domain-containing receptor 2 (Homo sapiens) (UniProt Q16832); assay: Inhibition of human DDR2 at 10 uM using KKSRGDYMTMQIG as substrate in presence of [gamma-33P]ATP by scintillation counting method relative to control
Chain of Discoidin domain-containing receptor 2 (Homo sapiens) (Q16832 whole entry, the tested form may be a part): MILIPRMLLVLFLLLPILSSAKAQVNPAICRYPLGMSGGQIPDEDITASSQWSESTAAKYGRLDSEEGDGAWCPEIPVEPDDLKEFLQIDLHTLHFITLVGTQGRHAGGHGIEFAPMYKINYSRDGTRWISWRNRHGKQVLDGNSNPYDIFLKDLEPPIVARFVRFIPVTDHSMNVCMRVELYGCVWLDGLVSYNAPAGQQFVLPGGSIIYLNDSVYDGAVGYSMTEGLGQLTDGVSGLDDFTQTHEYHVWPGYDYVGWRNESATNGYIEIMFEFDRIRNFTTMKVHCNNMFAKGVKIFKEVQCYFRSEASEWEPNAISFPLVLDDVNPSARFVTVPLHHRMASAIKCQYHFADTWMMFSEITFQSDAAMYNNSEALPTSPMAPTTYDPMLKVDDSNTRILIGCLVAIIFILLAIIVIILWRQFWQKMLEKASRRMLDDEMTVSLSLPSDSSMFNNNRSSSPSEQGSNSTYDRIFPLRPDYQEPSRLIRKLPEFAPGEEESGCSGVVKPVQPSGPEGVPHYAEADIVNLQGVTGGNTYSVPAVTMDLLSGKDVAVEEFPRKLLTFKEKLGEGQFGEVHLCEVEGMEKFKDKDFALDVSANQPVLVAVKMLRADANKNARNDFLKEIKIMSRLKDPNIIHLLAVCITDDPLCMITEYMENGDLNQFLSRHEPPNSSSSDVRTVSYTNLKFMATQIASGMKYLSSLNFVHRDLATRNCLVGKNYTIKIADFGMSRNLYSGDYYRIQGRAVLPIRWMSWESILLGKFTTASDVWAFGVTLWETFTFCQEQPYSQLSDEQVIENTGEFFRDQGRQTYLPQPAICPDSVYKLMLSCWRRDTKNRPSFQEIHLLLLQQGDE

[11] = test system: UO-31; assay: Growth inhibition of human UO-31 cells measured after 48 hrs by SRB assay; type: functional
[12] = test system: HCT-116; assay: Cell cycle arrest in human HCT-116 cells assessed as accumulation at sub-G1 phase at 1.25 uM measured after 48 hrs by propidium iodide staining based flow cytometry (reference value: 17%); type: functional
[13] = test system: HCT-116; assay: Cell cycle arrest in human HCT-116 cells assessed as accumulation at S phase at 2.5 uM measured after 48 hrs by propidium iodide staining based flow cytometry (reference value: 10.4%); type: functional
[14] = test system: NCI-H226; assay: Growth inhibition of human NCI-H226 cells measured after 48 hrs by SRB assay; type: functional
[15] = test system: HCT-116; assay: Induction of apoptosis in human HCT-116 cells assessed as viable cells at 2.5 uM measured after 48 hrs by Annexin-V Alexa Fluor488/propidium iodide staining based flow cytometry (reference value: 82.3%); type: functional; conditions: read-out: Activity
[16] = test system: SR; assay: Growth inhibition of human SR cells measured after 48 hrs by SRB assay; type: functional
[17] = test system: HCT-116; assay: Cell cycle arrest in human HCT-116 cells assessed as accumulation at S phase at 1.25 uM measured after 48 hrs by propidium iodide staining based flow cytometry (reference value: 10.4%); type: functional
[18] = test system: HOP-92; assay: Growth inhibition of human HOP-92 cells measured after 48 hrs by SRB assay; type: functional; conditions: for CC50: read-out: LC50 (the source's name)
[19] = test system: HCT-116; assay: Cell cycle arrest in human HCT-116 cells assessed as accumulation at S phase at 5 uM measured after 48 hrs by propidium iodide staining based flow cytometry (reference value: 10.4%); type: functional
[20] = test system: HCT-116; assay: Induction of apoptosis in human HCT-116 cells assessed as early apoptotic cells at 5 uM measured after 24 hrs by Annexin-V Alexa Fluor488/propidium iodide staining based flow cytometry (reference value: 6.3%); type: functional
[21] = test system: HCT-116; assay: Induction of apoptosis in human HCT-116 cells assessed as necrotic cells at 1.25 uM measured after 24 hrs by Annexin-V Alexa Fluor488/propidium iodide staining based flow cytometry (reference value: 4.6%); type: functional
[22] = test system: U-251; assay: Growth inhibition of human U-251 cells measured after 48 hrs by SRB assay; type: functional
[23] = test system: HCT-116; assay: Induction of apoptosis in human HCT-116 cells assessed as viable cells at 1.25 uM measured after 24 hrs by Annexin-V Alexa Fluor488/propidium iodide staining based flow cytometry (reference value: 88.1%); type: functional; conditions: read-out: Activity
[24] = test system: HCT-116; assay: Cell cycle arrest in human HCT-116 cells assessed as accumulation at G2/M phase at 5 uM measured after 48 hrs by propidium iodide staining based flow cytometry (reference value: 20.4%); type: functional
[25] = target: Epithelial discoidin domain-containing receptor 1 (Homo sapiens, UniProt Q08345); assay: Inhibition of human DDR1 at 10 uM using KKSRGDYMTMQIG as substrate in presence of [gamma-33P]ATP by scintillation counting method relative to control
Chain of Epithelial discoidin domain-containing receptor 1 (Q08345 whole entry, the tested form may be a part): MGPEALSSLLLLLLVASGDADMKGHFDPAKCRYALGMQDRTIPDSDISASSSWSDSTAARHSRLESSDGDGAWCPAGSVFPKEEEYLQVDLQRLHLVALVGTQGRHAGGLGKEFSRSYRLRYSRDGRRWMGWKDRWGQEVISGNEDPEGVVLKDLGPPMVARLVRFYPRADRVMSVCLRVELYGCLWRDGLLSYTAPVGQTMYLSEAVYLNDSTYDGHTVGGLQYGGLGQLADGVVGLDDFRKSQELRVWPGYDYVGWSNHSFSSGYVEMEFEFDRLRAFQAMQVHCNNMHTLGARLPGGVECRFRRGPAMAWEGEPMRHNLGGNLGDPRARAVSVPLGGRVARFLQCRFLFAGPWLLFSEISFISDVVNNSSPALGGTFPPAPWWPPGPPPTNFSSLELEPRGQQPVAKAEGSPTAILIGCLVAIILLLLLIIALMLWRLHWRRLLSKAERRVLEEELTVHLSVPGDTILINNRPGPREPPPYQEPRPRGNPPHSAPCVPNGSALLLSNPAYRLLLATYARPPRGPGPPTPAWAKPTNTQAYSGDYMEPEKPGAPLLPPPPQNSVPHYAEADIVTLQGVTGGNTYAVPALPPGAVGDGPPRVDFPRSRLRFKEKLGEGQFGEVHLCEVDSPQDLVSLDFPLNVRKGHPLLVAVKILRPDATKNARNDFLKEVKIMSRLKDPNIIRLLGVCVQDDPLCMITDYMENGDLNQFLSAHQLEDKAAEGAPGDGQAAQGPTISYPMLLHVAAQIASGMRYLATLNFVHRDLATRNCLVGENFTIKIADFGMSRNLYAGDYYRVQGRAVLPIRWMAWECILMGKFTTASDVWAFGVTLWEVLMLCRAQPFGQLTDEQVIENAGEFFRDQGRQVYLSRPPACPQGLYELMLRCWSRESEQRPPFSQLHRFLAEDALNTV

[26] = test system: ACHN; assay: Growth inhibition of human ACHN cells measured after 48 hrs by SRB assay; type: functional
[27] = test system: SK-MEL-2; assay: Growth inhibition of human SK-MEL-2 cells measured after 48 hrs by SRB assay; type: functional
[28] = test system: HCT-116; assay: Induction of apoptosis in human HCT-116 cells assessed as late apoptotic cells at 5 uM measured after 48 hrs by Annexin-V Alexa Fluor488/propidium iodide staining based flow cytometry (reference value: 2.2%); type: functional
[29] = test system: HCT-116; assay: Cell cycle arrest in human HCT-116 cells assessed as accumulation at G1/G0 phase at 5 uM measured after 48 hrs by propidium iodide staining based flow cytometry (reference value: 52.2%); type: functional
[30] = test system: HCT-116; assay: Cell cycle arrest in human HCT-116 cells assessed as accumulation at G2/M phase at 2.5 uM measured after 48 hrs by propidium iodide staining based flow cytometry (reference value: 20.4%); type: functional
[31] = test system: HCT-116; assay: Cell cycle arrest in human HCT-116 cells assessed as accumulation at sub-G1 phase at 2.5 uM measured after 48 hrs by propidium iodide staining based flow cytometry (reference value: 17%); type: functional
[32] = test system: HCT-116; assay: Cell cycle arrest in human HCT-116 cells assessed as accumulation at S phase at 1.25 uM measured after 24 hrs by propidium iodide staining based flow cytometry (reference value: 7.2%); type: functional
[33] = test system: HCT-116; assay: Cell cycle arrest in human HCT-116 cells assessed as accumulation at S phase at 2.5 uM measured after 24 hrs by propidium iodide staining based flow cytometry (reference value: 7.2%); type: functional
[34] = test system: HCT-116; assay: Cell cycle arrest in human HCT-116 cells assessed as accumulation at sub-G1 phase at 2.5 uM measured after 24 hrs by propidium iodide staining based flow cytometry (reference value: 8.7%); type: functional
[35] = test system: HCT-116; assay: Cell cycle arrest in human HCT-116 cells assessed as accumulation at S phase at 5 uM measured after 24 hrs by propidium iodide staining based flow cytometry (reference value: 7.2%); type: functional
[36] = test system: HCT-116; assay: Cell cycle arrest in human HCT-116 cells assessed as accumulation at sub-G1 phase at 1.25 uM measured after 24 hrs by propidium iodide staining based flow cytometry (reference value: 8.7%); type: functional
[37] = test system: HCT-116; assay: Cell cycle arrest in human HCT-116 cells assessed as accumulation at G1/G0 phase at 5 uM measured after 24 hrs by propidium iodide staining based flow cytometry (reference value: 65%); type: functional

Row | SMILES | GI50 [1] | GI50 [2] | LC50 [2] | TGI [2] | GI50 [4] | viability at 48 h, 3 µM [5] | GI50 [9] | GI50 [11] | LC50 (concentration killing 50% of cells) [11] | TGI [11] | GI50 [14] | viability at 2.5 µM [15] | GI50 [16] | GI50 [18] | TGI [18] | CC50 [18] | Activity [20] | Activity [21] | GI50 [22] | viability at 1.25 µM [23] | other results
1 | CCN1CCN(c2cc(C(=O)Nc3cccc(Nc4ccc5c(OC)cccc5n4)c3)cc(C(F)(F)F)c2)CC1 | 2100 nM | 758 nM | 8040 nM | 2060 nM | 1500 nM | 82.8% | 616 nM | 746 nM | 12400 nM | 3880 nM | 2850 nM | 78.8% | 883 nM | 1260 nM | 4660 nM | 16600 nM | 19.3% | 0.4% | 1360 nM | 86.5% | Activity [3]: 57.1%; inhibition [6]: 94.4%; Activity [7]: 54.7%; Activity [8]: 15.5%; inhibition [10]: 67.5%; Activity [12]: 21%; Activity [13]: 9.2%; Activity [17]: 8.8%; Activity [19]: 7.4%; Activity [24]: 14.4%; inhibition [25]: 94.5%; GI50 [26]: 1210 nM; GI50 [27]: 5300 nM; Activity [28]: 0.6%; Activity [29]: 64.1%; Activity [30]: 12.9%; Activity [31]: 20.9%
2 | COc1cccc2nc(Nc3cccc(NC(=O)c4ccc(N5CCN(C)CC5)c(C(F)(F)F)c4)c3)ccc12 | 1110 nM | 1400 nM | > 50000 nM | > 50000 nM | 1060 nM | 88.6% | 876 nM | 734 nM | 3040 nM | 1490 nM | 2260 nM | 79.5% | 1130 nM | 854 nM | 4030 nM | 18800 nM | 7.9% | 11% | 885 nM | 82.7% | Activity [32]: 8.2%; Activity [33]: 7.3%; Activity [34]: 7.9%; Activity [35]: 6.3%; GI50 [26]: 1530 nM; GI50 [27]: 1360 nM; Activity [28]: 5.4%; Activity [36]: 9.6%; Activity [37]: 71%
